Measured values: patent US4450269A, “Mono-5-substituted-3-chloro-4H-1,2,6-thiadiazin-4-one antifungal agents” (FMC Corporation, priority 1980, dated 1984)

What was measured:
Experiment in all cases: Spore germination test
Format in all cases: cell-based
Alternaria solani = details: AS, 48 hours
Procedure, shortened: (§1)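 Compound in acetone was mixed into water agar at final 40, 10, 2.5 and 1 ppm and poured into quadrant dishes. Quadrants received spore suspension, while Erysiphe polygoni and Uromyces phaseoli spores were brushed on from infected leaves. After 48 h at 24 °C, the percentage of germinated spores was converted to a germination rating.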

Botrytis cinerea = details: BC, 48 hours
Procedure, shortened: as §1

Uromyces phaseoli = details: UP, 48 hours
Procedure, shortened: as §1

Structure (SMILES)	Spore Germination Rating (Alternaria solani; 1.0 ppm)	Spore Germination Rating (Alternaria solani; 2.5 ppm)	Spore Germination Rating (Alternaria solani; 10 ppm)	Spore Germination Rating (Alternaria solani; 40 ppm)	Spore Germination Rating (Botrytis cinerea; 1.0 ppm)	Spore Germination Rating (Botrytis cinerea; 2.5 ppm)	Spore Germination Rating (Botrytis cinerea; 10 ppm)	Spore Germination Rating (Botrytis cinerea; 40 ppm)	Spore Germination Rating (Uromyces phaseoli; 1.0 ppm)	Spore Germination Rating (Uromyces phaseoli; 2.5 ppm)	Spore Germination Rating (Uromyces phaseoli; 10 ppm)	Spore Germination Rating (Uromyces phaseoli; 40 ppm)
O=c1c(Cl)nsnc1Oc1cccc2ccccc12 [Compound 32, 3-chloro-5(1-naphthoxy)-4H-1,2,6-thiadiazin-4-one]	3 (60-80)	1 (10-40)	0 (0-10)	0 (0-10)	2 (40-60)	0 (0-10)	0 (0-10)	0 (0-10)	3 (60-80)	0 (0-10)	0 (0-10)	0 (0-10)
Cc1ccc(Oc2nsnc(Cl)c2=O)cc1 [Compound 3, 3-chloro-5-(4-methylphenoxy)-4H--1,2,6-thiadiazin-4-one]	4 (80-100)	4 (80-100)	0 (0-10)	0 (0-10)	4 (80-100)	4 (80-100)	0 (0-10)	0 (0-10)	4 (80-100)	1 (10-40)	0 (0-10)	0 (0-10)
O=c1c(Cl)nsnc1Oc1c(Cl)cc(Cl)cc1Cl [Compound 30, 3-chloro-5-(2,4,6-trichlorophenoxy)-4H--1,2,6-thiadiazin-4-one]	3 (60-80)	0 (0-10)	0 (0-10)	0 (0-10)	0 (0-10)	0 (0-10)	0 (0-10)	0 (0-10)	0 (0-10)	0 (0-10)	0 (0-10)	0 (0-10)
O=c1c(Cl)nsnc1Oc1ccc(Cl)c(Cl)c1 [Compound 16, 3-chloro-5-(3,4-dichlorophenoxy)-4H--1,2,6-thiadiazin-4-one]	1 (10-40)	0 (0-10)	0 (0-10)	0 (0-10)	4 (80-100)	1 (10-40)	0 (0-10)	1 (10-40)	1 (10-40)	0 (0-10)	0 (0-10)	0 (0-10)
CC(C)(C)c1ccc(Oc2nsnc(Cl)c2=O)cc1 [Compound 4, 3-chloro-5-(4-tert-butylphnoxy)-4H--1,2,6-thiadiazin-4-one]	4 (80-100)	4 (80-100)	4 (80-100)	4 (80-100)	4 (80-100)	4 (80-100)	4 (80-100)	2 (40-60)	4 (80-100)	4 (80-100)	0 (0-10)	0 (0-10)
COc1ccc(Cl)c(Oc2nsnc(Cl)c2=O)c1 [Compound 51, 3-chloro-5-[(2-chloro-5-methoxy)phenoxy]-4H--1,2,6-thiadiazin-4-one]	4 (80-100)	4 (80-100)	1 (10-40)	0 (0-10)	4 (80-100)	3 (60-80)	0 (0-10)	0 (0-10)	0 (0-10)	0 (0-10)	0 (0-10)	0 (0-10)
COc1ccc(Oc2nsnc(Cl)c2=O)cc1 [Compound 5, 3-chloro-5-(4-methoxyphenoxy)4H--1,2,6-thiadiazin-4-one]	2 (40-60)	0 (0-10)	0 (0-10)	0 (0-10)	4 (80-100)	4 (80-100)	1 (10-40)	0 (0-10)	1 (10-40)	1 (10-40)	0 (0-10)	0 (0-10)
O=c1c(Cl)nsnc1Oc1ccccc1Cl [Compound 14, 3-chloro-5-(2-chlorophenoxy)-4H--1,2,6-thiadiazin-4-one]	3 (60-80)	2 (40-60)	0 (0-10)	0 (0-10)	3 (60-80)	0 (0-10)	0 (0-10)	0 (0-10)	0 (0-10)	0 (0-10)	0 (0-10)	0 (0-10)
CC(=O)Nc1ccccc1Oc1nsnc(Cl)c1=O [Compound 43, 3-[(2-acetylamino)-phenoxy]-5-chloro-4H--1,2,6-thiadiazin-4-one]	4 (80-100)	4 (80-100)	4 (80-100)	3 (60-80)	4 (80-100)	4 (80-100)	4 (80-100)	3 (60-80)	4 (80-100)	4 (80-100)	4 (80-100)	4 (80-100)
